The source of these data is US5674837A, “Stable bleomycin sulfate solution suitable for injection” (Abbott Laboratories, priority 1994, dated 1997).

Like-named read-outs stand apart in the source and are kept apart here.

One series has as its system Mycobacterium smegmatis. Put plainly: Storage stability of bleomycin sulfate solutions, potency by microbial agar diffusion assay. The format is physicochemical. Further details: first-order degradation rate constant k: unit not given here. The conditions noted are these: for % of Initial Drug Remaining (Potency): 3 U/mL in SWFI, RT. The method, then:
As used herein, "stable" or "stabilizing" refers to the retention of potency of a bleomycin solution in the range of about 90-120% of its initial starting potency. Potency refers to the amount of antimicrobial activity of the bleomycin solution as determined by microbial assay and is expressed in units of activity. One unit of bleomycin is equivalent in activity to 1 mg of bleomycin A2 reference standard. A2 reference standards are well known to those of ordinary skill in the art and may be purchased from a variety of commercial suppliers. […] The assay is performed as follows:
ii. Plates for potency assay: The number of plates required per assay is dependent on the number of samples to be tested. For all tests, at least 12 plates are required to establish a standard response line (see "Standard Response Line Solutions" below) and at least 3 plates are required to determine the potency of each test sample. Plates for potency testing are prepared by evenly distributing a 10 mL base layer of melted Medium 35 to an appropriate number of plastic or glass Petri dishes (20 by 100 millimeters). The layer of base agar medium is poured into each plate on a flat level surface, and a cover placed on each plate in turn; if a nonporous cover is used, the cover is left slightly ajar to prevent accumulation of condensing moisture from the hot agar base layer. After the agar hardens, the nonporous cover is seated on each plate. To prepare the seed layer, an amount of test organism suspension (see "Test Organism Suspension" below) is added to a sufficient amount of Medium 35 (which has been melted and cooled to 48° C.-50° C.) to equal a ratio of 1 mL suspension for each 100 mL of medium. The flask is swirled to obtain a homogeneous suspension, and 6 mL of suspension then added to each of the plates containing the uninoculated base agar. The seed layer is spread evenly over the agar surface, covered and allowed to harden on a flat, level surface. After the agar has hardened, 6 cylinders (stainless steel with an outside diameter of 8 millimeters (±0.1 millimeter), an inside diameter of 6 millimeters (±0.1 millimeter), and a length of 10 millimeters (±0.1 millimeter)) are placed on the inoculated agar surface so that they are at approximately 60° intervals on a 2.8 centimeter radius.
c. Test Organism Suspension: Test organism, Mycobacterium smegmatis (Cat. #607 from the American Type Culture Collection, 12301 Parklawn Dr., Rockville, Md. 20852 ) is maintained on agar slants containing 10 mL of Medium 36 as described above and transferred to a fresh slant about once a week. Slants are Incubated at 37° C. for 48 hours immediately after transfer. To prepare the test organism suspension, 3 mL of sterile USP saline T.S., is used to wash the growth from the agar slant into a 500-mL Edenmeyer flask containing 100 mL of Medium 34 and 50 gm of glass beads. The culture is agitated by rotation at a speed of 130 cycles per minute and a radius of 3.5 centimeters at 37° C. for 5 days. The test organism suspension is stored under refrigeration for a period of up to 2 weeks.
ii. Working Standard Stock Solution: The working standard of bleomycin is prepared as follows: In an atmosphere of about 10 percent relative humidity, about 100 milligrams of a fine powder of the drug is transferred to a tared weighing bottle equipped with a ground-glass stopper. The bottle is weighed and placed in a vacuum oven, with the stopper tilted on its side so that there is no closure during the drying period. The drug is dried at a temperature of 25° C. and a pressure of 5 millimeters of mercury or less for 4 hours. At the end of the drying period, the vacuum oven is filled with air that has been dried by passing it through a drying agent such as sulfuric acid or silica gel. The stopper is replaced and the weighing bottle placed in a desiccator over a desiccating agent, such as phosphorous pentoxide or silica gel, allowed to cool to room temperature, and reweighed.

The conditions of series [1]: cited from earlier work.
[2] abbreviates: 0.1M citrate buffer, 5° C., 3 mo.
Setting [3] is: 0.1M citrate buffer, 25° C., 2 mo.
Setting [4] is: 0.1M citrate buffer, 25° C., 3 mo.
Setting [5] is: 0.1M citrate buffer, 40° C., 1 mo.
The mark [6] stands for this setting: 0.1M citrate buffer, 40° C., 2 mo.
[7] abbreviates: 0.1M citrate buffer, 40° C., 3 mo.

As to bleomycin sulfate, the “% Potency Remaining” value in the series with Mycobacterium smegmatis (setting [2]) was 107.3%; with Mycobacterium smegmatis (setting [3]), 104.1%; in the series with Mycobacterium smegmatis (setting [4]), 95.2%; in the series with Mycobacterium smegmatis (setting [5]), 87.1%; in the series with Mycobacterium smegmatis (setting [6]), 83.1%; in the series with Mycobacterium smegmatis (setting [7]) it was 59.3%. Also, the “% Potency Remaining” value is 105.0% in the series with Mycobacterium smegmatis (SWFI, 5° C., 3 mo.); 105.1% in the series with Mycobacterium smegmatis (SWFI, 25° C., 2 mo.); 101.5% in the series with Mycobacterium smegmatis (SWFI, 25° C., 3 mo.); 96.1% with Mycobacterium smegmatis (SWFI, 40° C., 1 mo.); 97.7% with Mycobacterium smegmatis (SWFI, 40° C., 2 mo.); 63.4% with Mycobacterium smegmatis (SWFI, 40° C., 3 mo.). Also, the Potency worked out at 16.51 units per vial with Mycobacterium smegmatis (setting [2]); 16.02 units per vial in the series with Mycobacterium smegmatis (setting [3]); 14.65 units per vial with Mycobacterium smegmatis (setting [4]); 13.40 units per vial with Mycobacterium smegmatis (setting [5]); 12.79 units per vial with Mycobacterium smegmatis (setting [6]); 9.13 units per vial in the series with Mycobacterium smegmatis (setting [7]). For the same substance, the Potency in the series with Mycobacterium smegmatis (SWFI, 5° C., 3 mo.) was 16.37 units per vial; in the series with Mycobacterium smegmatis (SWFI, 25° C., 2 mo.), 16.38 units per vial; with Mycobacterium smegmatis (SWFI, 25° C., 3 mo.), 15.82 units per vial; with Mycobacterium smegmatis (SWFI, 40° C., 1 mo.) it was 14.97 units per vial; in the series on Mycobacterium smegmatis (SWFI, 40° C., 2 mo.) it was 15.22 units per vial; in the series on Mycobacterium smegmatis (SWFI, 40° C., 3 mo.), 9.88 units per vial. The “starting concentration (initial potency)” value in the series with Mycobacterium smegmatis (0.1M citrate buffer) was determined as 15.39 units per vial; in the series with Mycobacterium smegmatis (SWFI), 15.58 units per vial. Moreover, the “% of Initial Drug Remaining (Potency)” value in the series on Mycobacterium smegmatis (0 months) came out at 100.0%; in the series with Mycobacterium smegmatis (24 months) it was 48.0%. The decrease of potency in the series with Mycobacterium smegmatis (citrate buffer solution, 3 months storage at 40° C.) is on record as about 40%. Besides, the “decrease in stability” value in the series with Mycobacterium smegmatis (citrate solutions, 25° C. and 5° C., 3 months storage) is reported as “little if any, decrease in stability”.
Regarding bleomycin, the “shelf-life t90% (time required to reach 90% of the initial potency)” value with Mycobacterium smegmatis (solution in SWFI at RT, estimated from k) is about 3.44 months. Besides, the “first-order degradation rate constant k” value in the series on Mycobacterium smegmatis (solution in SWFI at RT, from 24 month data) is about 0.03058. The “time stable, reconstituted solutions” value is recorded as 4 weeks in series [1] (2° C.-8° C.) and 2 weeks in series [1] (room temperature). In series [1] (in dermabase or tincture of benzoin), the “stability in ointment base” value is recorded as “quite unstable”. Also, in series [1] (in petrolatum ointment base, in two years), the loss of activity was 7%. The “time stable in solution” value in series [1] (in saline (Dorr et al.)) is “up to seven”. In addition, in series [1] (multidose premix in sodium chloride, under refrigeration), the claimed stability time is 100 days.
